Data published in ChEMBL document CHEMBL1140081 (J Med Chem, 2008).
Each block holds one compound with its values, some of them ahead of it.

Key:
[1] = molecular target: Human immunodeficiency virus type 1 integrase (Human immunodeficiency virus 1, UniProt Q7ZJM1); test: Inhibition of HIV1 recombinant integrase strand transfer activity
[2] = test system: Human immunodeficiency virus 1; test: Antiviral activity against HIV1 3B in human MT4 cells in presence of 50% normal human serum; assay type: functional; details: Human immunodeficiency virus 1, 3B, MT4; read-out: CIC95
[3] = test system: Human immunodeficiency virus 1; test: Antiviral activity against HIV1 3B in human MT4 cells in presence of 10% heat-inactivated fetal bovine serum; details: Human immunodeficiency virus 1, 3B, read-out: CIC95
[4] = Oral bioavailability in po dosed Sprague-Dawley rat; assay type: ADME, organism-based; details: in vivo
[5] = Oral bioavailability in po dosed dog; assay type: ADME, organism-based, Canis lupus familiaris; details: in vivo
[6] = Cmax in Sprague-Dawley rat at 3 mg/kg, po; assay type: ADME, organism-based; design: dose 3 mg/kg, route oral; details: in vivo
[7] = Cmax in dog at 10 mg/kg, po; assay type: ADME, organism-based, Canis lupus familiaris; design: dose 10 mg/kg, route oral; details: in vivo
[8] = Terminal half life in po dosed Sprague-Dawley rat; assay type: ADME, organism-based; details: in vivo
[9] = Terminal half life in dog at 10 mg/kg, po; assay type: ADME, organism-based, Canis lupus familiaris; design: dose 10 mg/kg, route oral; details: in vivo, read-out: beta t1/2 (converted)
[10] = AUC in Sprague-Dawley rat at 3 mg/kg, po; assay type: ADME, organism-based; design: dose 3 mg/kg, route oral; details: plasma
[11] = AUC in dog at 10 mg/kg, po; assay type: ADME, organism-based, Canis lupus familiaris; design: dose 10 mg/kg, route oral; details: plasma
[12] = Protein binding in Sprague-Dawley rat plasma; assay type: ADME, cell-free; details: read-out: PPB (converted)
[13] = Protein binding in dog plasma; assay type: ADME, cell-free, Canis lupus familiaris; details: read-out: PPB (converted)
[14] = Protein binding in rhesus monkey plasma; assay type: ADME, cell-free, Macaca mulatta; details: read-out: PPB (converted)
[15] = Protein binding in human plasma; assay type: ADME, cell-free; details: read-out: PPB (converted)
[16] = Plasma concentration in dog at 10 mg/kg, po after 12 hrs; assay type: ADME, organism-based, Canis lupus familiaris; design: dose 10 mg/kg, route oral
[17] = Inhibition of HCV polymerase; design: species or system Hepacivirus hominis
[18] = Inhibition of HIV reverse transcriptase; design: species or system Human immunodeficiency virus
[19] = Inhibition of HIV ribonuclease H; design: species or system Human immunodeficiency virus
[20] = Inhibition of human DNA polymerase alpha
[21] = molecular target: DNA polymerase beta (Homo sapiens, UniProt P06746); test: Inhibition of human DNA polymerase beta
[22] = Inhibition of human DNA polymerase gamma
[23] = molecular target: T1, Cytochrome P450 1A2 (Homo sapiens, UniProt P05177); test: Inhibition of CYP1A2; assay type: ADME
T1 sequence (P05177 whole entry): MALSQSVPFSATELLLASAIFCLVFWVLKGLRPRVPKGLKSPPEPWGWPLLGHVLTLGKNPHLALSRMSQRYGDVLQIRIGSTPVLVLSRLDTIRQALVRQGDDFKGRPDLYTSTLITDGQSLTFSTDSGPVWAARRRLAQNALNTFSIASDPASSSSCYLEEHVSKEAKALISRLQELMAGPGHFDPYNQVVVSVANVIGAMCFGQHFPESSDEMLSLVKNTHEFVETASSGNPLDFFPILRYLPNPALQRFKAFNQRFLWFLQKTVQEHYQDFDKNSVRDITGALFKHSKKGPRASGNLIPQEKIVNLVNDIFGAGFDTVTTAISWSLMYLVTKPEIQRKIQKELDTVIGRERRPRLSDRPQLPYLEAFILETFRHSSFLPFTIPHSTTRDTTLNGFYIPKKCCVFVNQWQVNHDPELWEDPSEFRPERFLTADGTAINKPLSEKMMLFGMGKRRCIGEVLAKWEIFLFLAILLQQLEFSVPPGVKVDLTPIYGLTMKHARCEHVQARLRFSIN

[24] = molecular target: Cytochrome P450 2C9 (Homo sapiens, UniProt P11712); test: Inhibition of CYP2C9; assay type: ADME
[25] = molecular target: Cytochrome P450 2D6 (Homo sapiens, UniProt P10635); test: Inhibition of CYP2D6; assay type: ADME
[26] = molecular target: Cytochrome P450 3A4 (Homo sapiens, UniProt P08684); test: Inhibition of CYP3A4; assay type: ADME
[27] = Plasma clearance in Sprague-Dawley rat at 3 mg/kg, iv; assay type: ADME, organism-based; design: dose 3 mg/kg, route intravenous
[28] = Terminal half life in Sprague-Dawley rat at 3 mg/kg, iv; assay type: ADME, organism-based; design: dose 3 mg/kg, route intravenous; details: in vivo, read-out: beta t1/2 (converted)
[29] = Volume of distribution in Sprague-Dawley rat at 3 mg/kg, iv; assay type: ADME, organism-based; design: dose 3 mg/kg, route intravenous; details: in vivo
[30] = Plasma clearance in rhesus monkey at 1 mg/kg, iv; assay type: ADME, organism-based, Macaca mulatta; design: dose 1 mg/kg, route intravenous
[31] = Terminal half life in rhesus monkey at 1 mg/kg, iv; assay type: ADME, organism-based, Macaca mulatta; design: dose 1 mg/kg, route intravenous; details: in vivo, read-out: beta t1/2 (converted)
[32] = Plasma clearance in dog at 1 mg/kg, iv; assay type: ADME, organism-based, Canis lupus familiaris; design: dose 1 mg/kg, route intravenous
[33] = Terminal half life in dog at 1 mg/kg, iv; assay type: ADME, organism-based, Canis lupus familiaris; design: dose 1 mg/kg, route intravenous; details: in vivo, read-out: beta t1/2 (converted)
[34] = Volume of distribution in dog at 1 mg/kg, iv; assay type: ADME, organism-based, Canis lupus familiaris; design: dose 1 mg/kg, route intravenous; details: in vivo
[35] = Oral bioavailability in po dosed rhesus monkey; assay type: ADME, organism-based, Macaca mulatta; details: in vivo
[36] = Cmax in dog at 2 mg/kg, po; assay type: ADME, organism-based, Canis lupus familiaris; design: dose 2 mg/kg, route oral; details: in vivo
[37] = Cmax in po dosed rhesus monkey; assay type: ADME, organism-based, Macaca mulatta; design: route oral; details: in vivo
[38] = Terminal half life in po dosed rhesus monkey; assay type: ADME, organism-based, Macaca mulatta; details: in vivo, read-out: beta t1/2 (converted)
[39] = AUC in rhesus monkey at 10 mg/kg, po; assay type: ADME, organism-based, Macaca mulatta; design: dose 10 mg/kg, route oral; details: plasma
[40] = AUC in dog at 2 mg/kg, po; assay type: ADME, organism-based, Canis lupus familiaris; design: dose 2 mg/kg, route oral; details: plasma
[41] = test system: Human immunodeficiency virus 1; test: Antiviral activity against HIV1 with integrase T66I/M154 mutation by single cycle infectivity assay in presence of 10%FBS; assay type: functional
[42] = test system: Human immunodeficiency virus 1; test: Antiviral activity against HIV1 with integrase T66I/S153Y mutation by single cycle infectivity assay in presence of 10%FBS; assay type: functional
[43] = test system: Human immunodeficiency virus 1; test: Antiviral activity against HIV1 with integrase N155S mutation by single cycle infectivity assay in presence of 10%FBS; assay type: functional
[44] = test system: Human immunodeficiency virus 1; test: Antiviral activity against HIV1 with integrase T125K/F121Y mutation by single cycle infectivity assay in presence of 10%FBS; assay type: functional
[45] = test system: Human immunodeficiency virus 1; test: Antiviral activity against HIV1 with integrase T66I/L74M/V151I mutation by single cycle infectivity assay in presence of 10%FBS; assay type: functional
[46] = Volume of distribution in rhesus monkey at 1 mg/kg, iv; details: in vivo

Human immunodeficiency virus type 1 integrase, sequence (Q7ZJM1 whole entry): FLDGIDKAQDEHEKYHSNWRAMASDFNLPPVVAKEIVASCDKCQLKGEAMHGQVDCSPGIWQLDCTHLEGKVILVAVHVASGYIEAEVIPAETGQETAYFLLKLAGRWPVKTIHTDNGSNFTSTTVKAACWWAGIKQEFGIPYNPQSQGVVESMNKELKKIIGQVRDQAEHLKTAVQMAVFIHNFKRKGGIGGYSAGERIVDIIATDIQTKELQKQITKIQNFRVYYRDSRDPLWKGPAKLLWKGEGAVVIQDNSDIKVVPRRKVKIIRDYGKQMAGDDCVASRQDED
Cytochrome P450 2C9, sequence (P11712 whole entry): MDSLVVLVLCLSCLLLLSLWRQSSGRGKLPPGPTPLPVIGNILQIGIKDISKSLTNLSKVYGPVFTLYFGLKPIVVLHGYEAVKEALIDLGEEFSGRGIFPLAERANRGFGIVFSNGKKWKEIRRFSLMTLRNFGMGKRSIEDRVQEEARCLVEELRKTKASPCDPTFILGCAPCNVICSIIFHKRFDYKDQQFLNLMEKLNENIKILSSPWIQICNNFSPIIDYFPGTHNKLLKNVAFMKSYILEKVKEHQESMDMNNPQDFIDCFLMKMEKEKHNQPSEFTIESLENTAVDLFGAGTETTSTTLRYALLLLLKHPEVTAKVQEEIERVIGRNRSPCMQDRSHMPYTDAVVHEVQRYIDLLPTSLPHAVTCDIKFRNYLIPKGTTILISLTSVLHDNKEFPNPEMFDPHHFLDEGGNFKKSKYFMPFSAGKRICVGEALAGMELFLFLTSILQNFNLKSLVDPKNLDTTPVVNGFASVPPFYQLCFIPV
Cytochrome P450 3A4, sequence (P08684 whole entry): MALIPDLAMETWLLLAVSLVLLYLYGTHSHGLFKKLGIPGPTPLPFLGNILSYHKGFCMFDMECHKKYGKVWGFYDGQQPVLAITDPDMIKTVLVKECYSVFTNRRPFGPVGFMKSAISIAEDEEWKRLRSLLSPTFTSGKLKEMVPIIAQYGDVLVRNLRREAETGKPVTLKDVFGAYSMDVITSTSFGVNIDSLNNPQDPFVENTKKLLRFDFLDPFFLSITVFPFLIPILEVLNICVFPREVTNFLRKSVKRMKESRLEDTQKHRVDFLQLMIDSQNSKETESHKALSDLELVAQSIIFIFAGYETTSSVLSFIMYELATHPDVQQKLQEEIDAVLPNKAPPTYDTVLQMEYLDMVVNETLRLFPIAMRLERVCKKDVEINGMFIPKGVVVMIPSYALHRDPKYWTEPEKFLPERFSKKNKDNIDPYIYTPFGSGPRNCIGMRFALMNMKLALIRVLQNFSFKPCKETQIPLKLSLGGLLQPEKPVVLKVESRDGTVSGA
Cytochrome P450 2D6, sequence (P10635 whole entry): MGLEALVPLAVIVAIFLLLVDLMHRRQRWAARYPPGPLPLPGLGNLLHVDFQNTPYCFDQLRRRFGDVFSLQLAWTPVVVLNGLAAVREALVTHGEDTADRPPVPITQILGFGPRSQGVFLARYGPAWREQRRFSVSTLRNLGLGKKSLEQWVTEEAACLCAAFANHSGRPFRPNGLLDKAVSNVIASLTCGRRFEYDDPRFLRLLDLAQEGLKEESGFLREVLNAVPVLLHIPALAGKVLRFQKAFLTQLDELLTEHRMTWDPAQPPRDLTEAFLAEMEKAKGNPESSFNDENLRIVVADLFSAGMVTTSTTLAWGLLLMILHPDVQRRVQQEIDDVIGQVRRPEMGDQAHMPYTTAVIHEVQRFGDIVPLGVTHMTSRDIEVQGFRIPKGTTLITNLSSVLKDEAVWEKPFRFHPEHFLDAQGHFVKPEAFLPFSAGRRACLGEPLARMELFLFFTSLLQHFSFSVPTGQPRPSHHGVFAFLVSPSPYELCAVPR

Compound: Cn1c(C(C)(C)NS(C)(=O)=O)nc(C(=O)NCc2ccc(F)cc2)c(O)c1=O
IC50 [1]: 8 nM | IC95 [2]: 1000 nM | IC95 [3]: 62 nM

Compound: Cn1c(C(C)(C)NC(=O)C(=O)N2CCOCC2)nc(C(=O)NCc2ccc(F)cc2)c(O)c1=O
IC50 [1]: 20 nM | IC95 [2]: 125 nM | IC95 [3]: 125 nM

Compound: CN(C)C(C)(C)c1nc(C(=O)NCc2ccc(F)cc2)c(O)c(=O)n1C
IC50 [1]: 230 nM | IC95 [2]: > 1000 nM | IC95 [3]: 1000 nM

Compound: CN(C)C(=O)C(=O)N(C)C(C)(C)c1nc(C(=O)NCc2ccc(F)cc2)c(O)c(=O)n1C
IC50 [1]: 15 nM | IC95 [2]: 125 nM | IC95 [3]: 62 nM

Compound: CN(C)C(=O)NC(C)(C)c1nc(C(=O)NCc2ccc(F)cc2)c(O)c(=O)n1C
IC50 [1]: 18 nM | IC95 [2]: > 1000 nM | IC95 [3]: 1000 nM

Compound: CNC(=O)c1nc(C(C)(C)NC(=O)C(=O)N(C)C)n(C)c(=O)c1O
IC50 [1]: > 5000 nM | IC95 [2]: > 10000 nM | IC95 [3]: > 10000 nM

Compound: Cn1c(C(C)(C)NC(=O)c2ccccn2)nc(C(=O)NCc2ccc(F)cc2)c(O)c1=O
IC50 [1]: 20 nM | IC95 [2]: 1000 nM | IC95 [3]: 125 nM

Compound: Cn1c(C(C)(C)NC(=O)c2cccnn2)nc(C(=O)NCc2ccc(F)cc2)c(O)c1=O
IC50 [1]: 15 nM | IC95 [2]: 500 nM | IC95 [3]: 62 nM

Compound: CN(C)C(=O)C(=O)NC(C)(C)c1nc(C(=O)NCc2ccc(F)cc2)c([O-])c(=O)n1C.[Na+]
IC95 [2]: 125 nM | bioavailability [4]: 36% | bioavailability [5]: 93% | Cmax [6]: 4100 nM | Cmax [7]: 32000 nM | half-life [8]: 2.3 h | half-life [9]: 11.9 h | AUC [10]: 2.2 µM·h | AUC [11]: 47 µM·h | fraction unbound [12]: 0.65 | fraction unbound [13]: 0.62 | fraction unbound [14]: 0.82 | fraction unbound [15]: 0.72 | concentration at 12 h [16]: 246 nM

Compound: Cc1nnc(C(=O)NC(C)(C)c2nc(C(=O)NCc3ccc(F)cc3)c(O)c(=O)n2C)o1
IC95 [2]: 31 nM | IC50 [17]: > 50000 nM | IC50 [18]: > 50000 nM | IC50 [19]: > 50000 nM | IC50 [20]: > 50000 nM | IC50 [21]: > 50000 nM | IC50 [22]: > 50000 nM | IC50 [23]: > 50000 nM | IC50 [24]: > 50000 nM | IC50 [25]: > 50000 nM | IC50 [26]: > 50000 nM | clearance [27]: 39 mL/min/kg | half-life [28]: 2 h | Vd [29]: 2 L/kg | clearance [30]: 18 mL/min/kg | half-life [31]: 4 h | clearance [32]: 6 mL/min/kg | half-life [33]: 11 h | Vd [34]: 0.9 L/kg | bioavailability [4]: 37% | bioavailability [5]: 45% | bioavailability [35]: 8% | Cmax [6]: 1200 nM | Cmax [7]: 8000 nM | Cmax [36]: 3000 nM | Cmax [37]: 300 nM | half-life [38]: 7 h | AUC [10]: 1 µM·h | AUC [11]: 21 µM·h | AUC [39]: 1.8 µM·h | AUC [40]: 7 µM·h | Activity [41]: 1% | Activity [42]: 1% | Activity [43]: 10% | Activity [44]: 8% | Activity [45]: 6% | Vd [46]: 1.2 L/kg | IC95 [3]: 19 nM

Continued, in another order:

IC50 [1]: 4 nM
Compound: Cc1nnc(C(=O)NC(C)(C)c2nc(C(=O)NCc3ccc(F)cc3)c(O)c(=O)n2C)[nH]1
IC95 [2]: 1000 nM | IC95 [3]: 250 nM

IC50 [1]: 7 nM
Compound: Cn1c(C(C)(C)NC(=O)c2cnco2)nc(C(=O)NCc2ccc(F)cc2)c(O)c1=O
IC95 [2]: 500 nM | IC95 [3]: 500 nM

IC50 [1]: 4 nM
Compound: CN(C)C(=O)C(=O)NC(C)(C)c1nc(C(=O)NCc2ccc(F)cc2S(C)(=O)=O)c(O)c(=O)n1C
IC95 [2]: 125 nM | IC95 [3]: 125 nM

IC50 [1]: 7 nM
Compound: Cn1c(C(C)(C)NC(=O)c2ncccn2)nc(C(=O)NCc2ccc(F)cc2)c(O)c1=O
IC95 [2]: 50 nM | IC95 [3]: 20 nM

IC50 [1]: 7 nM
Compound: CC(=O)NC(C)(C)c1nc(C(=O)NCc2ccc(F)cc2)c(O)c(=O)n1C
IC95 [2]: 400 nM | IC95 [3]: 310 nM
